Test results reported in patent US12193465B2, “Materials and methods for extending shelf-life of foods” (JP Laboratories, Inc., priority 2021, dated 2025).
Counter-ions that a name gives are not always drawn. Like-named read-outs stand apart in the source and are kept apart here.

Key:
[1] = Color change / browning / yellowing of foods (keeping produce green longer); details: for Spoilage Time - Sample (Color change): 2% in water sprayed
Procedure: (§1) All studies were conducted at a room temperature of about 25° C. To determine the effectiveness of a shelf-life extender, a control sample which was untreated with any shelf-life extenders, was tested identical to the test samples. […] All studies in those Examples of Tables 1-6 were conducted in closed plastic or glass containers. Containers, such as plastic containers, without or with lids having holes can be used if it is advantageous to let excess moisture escape or to prevent condensation of moisture released by some produce.
(§2) Food exposed to preservatives or by a sachet was placed in typically polystyrene or acrylic containers depending upon the size and number of food items. Glass jars and bottles were also used. The containers were snap-closed or with a lid. The containers were purchased mainly from Amazon or Webstaurant.com store. When needed, plastic containers with holes or without lids were used.
(§3) For controlled exposure and a constant supply of a preservative to foods, sachets containing one or more drops of preservatives were used. Sachets were made by placing an appropriate amount of a preservative in a plastic bag containing a piece of paper and heat sealing the bag. The sachet bag materials used were Tyvek® for solid preservative, polyethylene, polyester and high barrier multilayer films were used for liquid preservatives. These bags were sealed with a heat sealer. The sachet was typically applied on one side of the container containing food.
(§4) A piece of paper napkin was taped inside a 100 microns thick polyethylene or polyester Ziploc bag. The size of the bag varied from ˜20 cm×30 cm to ˜60 cm×90 cm depended on the sample with sandwich bags up to gallon bags being exemplary. The paper napkin was wetted with 0.1-0.5 ml of a preservative or a mixture of preservatives. A tray of aluminum, stainless steel or glass containing the foods was placed inside the plastic (polyethylene, polyester and multilayer-laminated) bag and almost closed by locking the Ziploc. Air was blown with an air blower from the unclosed end until the bag was fully blown and then quickly closed tightly by locking the remaining Ziploc. If a preservative was a sublimable solid, it was placed in a petri dish and then placed inside the bag in the tray before blowing air. The exposure time was varied from five minutes to a day depending upon the food. […] The assembly was shaken periodically. After the predetermined time, the tray containing produce was removed from the bag, allowed to de-gas for 10-30 minutes in air and the produce was then placed in an appropriately sized container. Glass and stainless steel containers with lids were also often used.
(§5) A solution of one or more preservatives was prepared in a large (e.g., 2-10 liter) glass beaker or a jar. A sack containing the food was prepared by placing the food in a plastic mesh bag. The sack was placed in the solution of the preservative. A smaller glass beaker containing proper amount of water was place over the package to keep the sack soaked in the solution of the preservative during the treatment. The solution was stirred either with a plastic spatula or with a magnet over a magnetic stirrer. After treatment, the mesh sack was removed, the produce was washed in a tray with running water, strained and air dried at 30° C. in an air blowing oven for about 5-10 minutes, while shaking the tray or turning the food periodically followed by placing the sample in an appropriate container.
(§6) The food was placed in mesh trays and sprayed with an aqueous solution (1-10%) of a preservative while shaking the tray or turning the food. The solution was allowed to drain from the tray and the food was air dried in an air blowing oven at 30° C. for about 5-10 minutes, while shaking the tray or turning food periodically followed by placing the sample in an appropriate container.

[2] = system: parval, methi, coriander, radish, guar; assay: Shriveling / wilting / dehydration / becoming wet of produce; details: for Spoilage Time - Sample (Dehydration): 0.08 hr soaking in 22% solution in water
Source text: (§7) Most of the foods changed color or texture.
(§8) The assembly was shaken periodically.

[3] = General shelf-life extension of foods (spoilage criteria of Example 9); details: for Effectiveness for controlling one or more spoilage criteria: variety of foods
Procedure: as §1, §2, §3, §4, §5, §6

fungus = assay: Fungus growth on treated foods stored in closed containers at room temperature;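 on Effectiveness on ginger: compared with untreated control ginger in closed containers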
Source text: as §7
Glass jars and bottles were also used. The containers were snap-closed or with a lid.
(§9) These bags were sealed with a heat sealer.
as §8

[4] = system: green tomato, papaya, banana, mango, peppers, tindora; assay: Ripening of fruits and vegetables (delayed or expedited); details: for Spoilage Time - Sample (Expedited ripening): control 14+ days; for Ripening, green-to-yellow (or red) color-change: pre-dipping into 10% solution
Procedure: as §1, §3, §4, §5
The untreated (control sample) and treated food were placed in proper sized plastic containers and the containers were tightly closed.
The following major criteria were used for determining spoilage of foods: growth of fungus, color change, unpleasant odor, wilting, firmness or shriveling, change of state (liquid to solid or vice versa), and sprouting or germination Example 10: Sources of food.

[5] = Color loss of meat and fish; details: for Spoilage Time - Sample (Color loss): Sachet, control 2 days
Source text: as §7, §9

avocado = assay: Softening / rotten inside (spoiled flesh) of avocado
Source text: as §7, §8

[6] = system: grains, legumes, potatoes, garlic; assay: Germination / sprouting of grains, legumes and tubers; details: for Spoilage Time - Sample: Example 111, Germination, Mixed Legumes, 64 hrs P-E, control 3 days
Source text: as §9, §8

[7] = Curdling / cream / solidification of milk; details: pasteurized whole and fat-free milk;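 further: compared with untreated control milk in closed containers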
Source text: as §7

O=C(O)C(O)c1ccccc1 (stereo not shown) [mandelic acid, Mandelic Acid]
Spoilage of coriander ([1]; Example 161, soaking in 1% solution): significantly delayed | Spoilage Time - Sample (Wet) ([2]; Coriander, 0.5 hr soaking in 1% solution in water, control 7 days): 7+ days

(−)-Menthone
Shelf-life of flowery vegetables [3]: extended shelf-life | Dehydration/wilting ([2]; Example 162, radish, vapor, control 5 days): less dehydration/wilting | Spoilage Time - Sample (Shriveling) ([2]; Radish, 2 hrs P-E, control 5 days): 5 days

CCCCOCCO [2-butoxyethanol, 2-Butoxyethanol]
Fungus growth (fungus; 312 h): > 29 days | Spoilage Time - Sample (Fungus) (fungus; Red tomato, 2 hrs P-E, control 13 days): 29 days | Effectiveness for controlling one or more spoilage criteria [3]: effective to a greater or lesser extent | Spoilage Time - Sample (Expedited ripening) ([4]; Mango, Sachet): 8 days

COC(=O)/C=C\C(=O)OC [dimethyl maleate, Dimethyl maleate]
Ripening ([4]; Example 156, mangoes, sachet, control 16 days): 23 days | Spoilage Time - Sample (Ripening) ([4]; Mango, Sachet, control 16 days): 23 days

COC(=O)OC [dimethyl carbonate, Dimethyl carbonate]
Effectiveness for controlling one or more spoilage criteria [3]: effective to a greater or lesser extent | Expedited ripening ([4]; Example 155, mango, control around 14 days): 8 days | Spoilage Time - Sample (Expedited ripening) ([4]; Mango, Sachet): 8 days

Ammonium carbonate
Spoilage Time - Sample (Color loss) ([5]; Ground Beef): 2+ days | Spoilage Time - Sample (Color loss) ([5]; Ground Chicken): 2+ days | Spoilage Time - Sample (Color loss) ([5]; Tilapia fish fillet): 2+ days | Improvements with meat and fish ([5]; meat and fish): demonstrated improvements | Shelf-life of flowery vegetables [3]: extended shelf-life | Effectiveness as shelf-life extender ([3]; tofu): effective

O=C1C=CCCC1 [2CY, 2-Cyclohexen-1-one]
Effectiveness on ginger (fungus; ginger, pre-exposure and sachet method): found effective | Shelf-life of flowery vegetables [3]: extended shelf-life | Shelf-life of shelled and unshelled peanuts ([3]; peanuts): extended | Effectiveness for controlling one or more spoilage criteria [3]: effective to a greater or lesser extent | Spoilage Time - Sample ([1]; Example 114, Yellowing, Coriander, 1 hr P-E, control 10 days): 10+ days | Spoilage Time - Sample ([1]; Example 114, Yellowing, Coriander, 1 hr P-E, control 10 days, listed as 2-cyclohexen-1-one): significantly delayed | Spoilage Time - Sample (avocado; Example 113, Softening, Avocado, 2 hrs P-E, control 2 days): 2 days | Spoiling of the flesh with development of fungus (avocado; avocados, Examples 77, 78, 107, 108, 113 & 171): significantly delayed | Spoilage Time - Sample [6]: 3 days | Spoilage Time - Sample ([6]; listed as 2-cyclohexen-1-one): delayed or prevented | Spoilage Time - Sample ([4]; Example 112, Ripeness, Papaya, 2 hrs P-E, control 7 days): 11 days | Spoilage Time - Sample ([4]; Example 112, Ripeness, Papaya, 2 hrs P-E, control 7 days, listed as 2-cyclohexen-1-one): at least 11 days | Effectiveness in delaying the ripening of tomatoes ([4]; unsaturated versus saturated homolog): more effective

C[N+](C)(C)CCO.[Cl-] [choline chloride, Choline chloride]
Spoilage Time - Sample (Color loss) ([1]; Broccoli, 1 hr soaking in 5% solution in water, control 1 day): 8 days | Remaining green ([1]; Example 149, Bok choy, pre-dipped into 22% solution): remained green longer | Color change ([1]; Example 150, parsley, pre-dipping/rinsing in 22% solution): delayed the color change | Color change from green-to-yellow ([1]; Example 152, broccoli, dipped into 5% solution): significantly delayed | Sprouting ([6]; Example 154, potatoes, pre-dipping into 10% solution): either prevented or significantly delayed | Spoilage Time - Sample (Sprouting) ([6]; Fingerling Potatoes, 2 hrs soaking in 10% solution in water, control 10 days): 16 days | Spoilage Time - Sample (Dehydration) ([2]; Bok Choy, control 7 days): 11 days | Spoilage Time - Sample (Dehydration) ([2]; Parsley, control 7 days): 11 days | Ripening, green-to-yellow (or red) color-change ([4]; Example 151, green chili peppers): delayed | Ripening, green-to-yellow (or red) color-change ([4]; Example 153, Jalapeno peppers): delayed | Spoilage Time - Sample (Ripening) ([4]; Jalapeño Peppers, 1 hr soaking in 10% solution in water, control 3 days): 8 days | Spoilage Time - Sample (Ripening) ([4]; Peppers, 2 hrs soaking in 10% solution in water, control 6 days): 13 days

OB(O)c1ccccc1 [phenylboronic acid, Phenylboronic acid]
Spoilage Time - Sample (Fungus) (fungus; Blueberry, 2% in water sprayed, control 6 days): 10+ days | Spoilage Time - Sample (Fungus) (fungus; Strawberry, 2% in water sprayed, control 6 days): 10+ days | Fungus growth (fungus; strawberries, raspberries, blackberries and lychee): either prevented or significantly delayed | Spoilage Time - Sample (Color change) ([1]; Broccoli, control 4 days): 28 days | Color change from green to brown on the skin ([1]; Example 137, limes, sprayed with 2% solution in water, room temperature, control 6 days): > 10 days | Spoilage Time - Sample (Color change) ([1]; Lime, control 6 days): 6+ days | Spoilage Time - Sample (Color change) ([1]; Methi, control 4 days): 28 days | Germination/sprouting ([6]; Example 140, grains, mainly unhusked rice and soft white wheat, 2% spray, control 2 days): > 10 days | Spoilage Time - Sample (Germination) ([6]; Grains (mixed legumes and soft white wheat), 2% in water sprayed, control 2 days): 7+ days | Curdling of milk [7]: delayed curdling

CCOCCO [2-ethoxyethanol, 2-Ethoxyethanol]
Spoilage Time - Sample (Ripening) ([4]; Mango, 2 hrs P-E, control 16 days): 23 days

N.NC(=O)O [ammonium carbamate, Ammonium carbamate]
Loss of pinkish fleshy color ([5]; Example 143, ground beef, sachet, 3rd day, control within 2 days): lost less fleshy pinkish color | Spoilage Time - Sample (Fungus) (fungus): 80+ days | Shelf-life of flowery vegetables [3]: extended shelf-life

NCCN [ED, Ethylenediamine]
Effectiveness for controlling one or more spoilage criteria [3]: effective to a greater or lesser extent | Spoilage Time - Sample ([1]; Example 131, Color change, Parsley, 0.25 hr P-E, control 7 days): 22+ days | Spoilage Time - Sample ([1]; Example 131, Color change, Parsley, 0.25 hr P-E, control 7 days, listed as ethylenediamine): significantly delayed | Spoilage Time - Sample ([4]; Example 132, Ripening, Banana, 0.25 hr P-E, control 18 days): 21+ days | Spoilage Time - Sample ([4]; Example 132, Ripening, Banana, 0.25 hr P-E, control 18 days, listed as ethylenediamine): > 21 days
